Measured values published in article PMC8279416, “Structural Fine-Tuning of Desmuramylpeptide NOD2 Agonists Defines Their In Vivo Adjuvant Activity” (Journal of Medicinal Chemistry, 2021).

What was measured:
[1] = test system: NIH/OlaHsd mice; assay: In vivo ovalbumin-specific antibody response, second experiment (neutral, anionic, mannosylated liposomes); design: species or system mouse; conditions: for Log10 (anti-OVA IgG1/anti-OVA IgG2a): second in vivo experiment, 0.15 μmol adjuvant, one week after second booster, mean ± SEM of 5 mice
Description: To determine whether the adjuvanticity of 75 can be modulated through changes to the liposomal formulation, a second in vivo experiment was designed in which the adjuvant activities of three different liposomal compositions were compared. Neutral liposomes were prepared from egg phosphatidylcholine and cholesterol.
Multilamellar liposomes were prepared by the modified thin lipid film method as described previously.[130],[131] For the preparation of neutral liposomes, a 7:5 molar ratio of egg-phosphatidylcholine and cholesterol was used. For the preparation of negatively charged liposomes, a 7:5:1 molar ratio of egg-phosphatidylcholine, cholesterol, and dicetylphosphate was used, while a 7:5:0.5 molar ratio of egg-phosphatidylcholine, cholesterol, and Man-PEG-Pam was used in the preparation of mannosylated liposomes. Lipids (total lipid concentration, 4 mg/mL) were dissolved in chloroform/methanol (2:1). A methanol or chloroform/methanol solution of MDP or the desmuramylpeptides was added to the lipid solution for a final concentration of 2 mM and 1.5 mM for the first (Figure 10) and second (Figure 11) experiments, respectively. After rotary evaporation of the solvent, the remaining lipid film was dried in vacuum for 1 h and then dispersed by gentle handshaking in an ovalbumin solution in saline (0.0667 and 0.1 mg/mL for the first and second experiments, respectively). This was then left overnight at 4 °C to swell and stabilize. Liposome size was reduced by sonification. Nonentrapped material was not separated from liposomes, and the complete liposome suspension was used for immunizations.
For the first experiment (Figure 10), sex-matched NIH/OlaHsd mice (five per group) were immunized subcutaneously in the tail base and boosted one time after 21 days. The injection volume in all experimental groups was 0.15 mL per mouse, which corresponds to 10 μg of OVA, […], and 0.30 μmol of MDP and desmuramylpeptides. For the second experiment (Figure 11), sex-matched NIH/OlaHsd mice (five per group) were immunized and boosted two times subcutaneously into the tail base at 21-day intervals. The injection volume in all experimental groups was 0.1 mL per mouse, which corresponds to 10 μg of OVA, 400 μg of lipids, and 0.15 μmol of MDP and 75. The mice were anesthetized with ip application of ketamine/xylazine (25 mg/kg each) prior to blood collection from the axillary plexus on the seventh day after the last booster dose. Individual serum from each animal was decomplemented at 56 °C for 30 min and then stored at −20 °C until tested.
ELISA assays were performed as detailed previously.[46] Briefly, high-binding ELISA plates (Costar, U.S.A.) were coated with a 15 μg/mL solution of ovalbumin in carbonate buffer, pH 9.6, and incubated overnight at room temperature. Nonspecific antibody binding was blocked with 0.5% w/v bovine serum albumin in PBS-T (0.05% (v/v) Tween 20 in phosphate-buffered saline) for 2 h at 37 °C. After washing, five serial dilutions of mice sera and standard preparations were added in duplicate. Plates were incubated overnight at room temperature, washed, and analyzed for ovalbumin-specific IgG levels by incubation with HRP-conjugated goat anti-mouse IgG (2 h at 37 °C) and then, after washing, with 0.6 mg/mL o-phenylenediaminedihydrochloride solution in citrate-phosphate buffer, pH 5.0, with 0.5 μL of 30% H2O2 per milliliter for 30 min at room temperature in the dark. The enzymatic reaction was stopped with 12.5% H2SO4, and absorbance at 492 nm was measured using a microplate reader (Thermo Fisher Scientific, Waltham, MA, U.S.A.). For the determination of ovalbumin-specific IgG1 and IgG2a, the plates were incubated with biotin-conjugated rat anti-mouse IgG1 or IgG2a (2 h at 37 °C) and subsequently with streptavidin–peroxidase for another 2 h at 37 °C. After washing, the substrate solution was added and incubated for 30 min at room temperature in the dark, as described above. […]

[2] = test system: CD8+ T cells (OT I) cocultured with BMDCs; assay: BMDC antigen cross-presentation assay with ovalbumin-specific CD8+ T cells; type: cell-based, mouse; conditions: ovalbumin 50 μg/mL, 72 h coculture
Description: To evaluate the adjuvant potential of the two most-promising desmuramylpeptides, 68 and 75, in terms of their effects on DC-mediated activation of CD4^+ and CD8^+ T cells, we used an in vitro antigen-presentation assay with C57BL/6 mouse bone-marrow-derived DCs (BMDCs). Following stimulation with 68 and 75 (1 or 10 μM) in the presence of ovalbumin soluble protein (50 μg/mL), BMDCs were cocultured with carboxyfluorescein succinimidyl ester (CFSE)-labeled naive ovalbumin-specific CD4^+ or CD8^+ T cells, which were isolated from splenocytes of OT II and OT I transgenic mice, respectively. After 3 days of coculture, CD25 (α subunit of IL-2 receptor)[108] expression was determined, along with the CFSE dilution, as markers of T-cell activation and proliferation, respectively. Furthermore, we also examined how this desmuramylpeptide-induced priming of T cells affected the secreted cytokine profiles in BMDC/T-cell cocultures.
CD4^+ and CD8^+ T cells were purified from splenocytes of OT II and OT I transgenic mice using CD4^+ and CD8^+ T cell isolation kits (Miltenyi Biotec, Germany), according to manufacturer instructions. […] Live Thy1.2^+/CD4^+ and Thy1.2^+/CD8^+ were evaluated for CFSE dilution and CD25 expression. […] Statistical significance was determined by one-way ANOVA followed by Dunnett’s multiple comparisons test.

Row | Structure (SMILES) | Ovalbumin-specific IgG2a response (in words) ([1]; mannosylated liposomes, 0.15 μmol adjuvant per dose) | Ovalbumin-specific IgG1 response (in words) ([1]; negatively charged liposomes, 0.15 μmol adjuvant per dose) | Ovalbumin-specific IgG levels compared to controls without adjuvant (in words) ([1]; regardless of the liposomal composition) | Log10 (anti-OVA IgG1/anti-OVA IgG2a) ([1]; anionic liposomes) | Log10 (anti-OVA IgG1/anti-OVA IgG2a) ([1]; mannosylated liposomes) | Log10 (anti-OVA IgG1/anti-OVA IgG2a) ([1]; neutral liposomes) | BMDC processing and cross-presentation of ovalbumin to CD8+ T cells [2]
1 | CCCCCCCCCCCCCCCCCC(=O)Oc1ccc(/C=C/C(=O)NCC(=O)N[C@H](C(=O)N[C@H](CCC(=O)OCC)C(=O)OCC)C(C)C)cc1OC [Compound 75, Diethyl ((E)-3-(3-Methoxy-4-(stearoyloxy)phenyl)acryloyl)glycyl-L-valyl-D-glutamate] | enhanced the production of IgG2a antibodies | diminished IgG1 activity | increased the levels of IgG antibodies | 1.84 ± 0.20 | 2.15 ± 0.17 | 2.27 ± 0.17 | –
2 | COc1cc(/C=C/C(=O)NCC(=O)N[C@H](C(=O)N[C@H](CCC(=O)OC2CCCC2)C(=O)OC2CCCC2)C(C)C)ccc1O [Compound 68, Dicyclopentyl ((E)-3-(4-Hydroxy-3-methoxyphenyl)acryloyl)glycyl-L-valyl-D-glutamate] | – | – | – | – | – | – | significantly increased
